Here are results for 17 compounds from patent US20040062729A1, “Photoprotective sunscreen compositions comprising 1,3,5-triazine compounds and triesters of benenetricarboxylic acids” (SOCIETE L'OREAL S.A., priority 2001, published 2004).

The conditions of this data set: 5 g 2,4-bis{[4-2-ethylhexyl-oxy)]-2-hydroxy]phenyl}-6-(4-methoxyphenyl)-1,3,5-triazine in 20 g solvent oil, heated to 83° C., cooled.

Protocol: The solubilization time of 2,4-bis{[4-2-ethylhexyl-oxy)]-2-hydroxy]phenyl}-6-(4-methoxyphenyl)-1,3,5-triazine (screening agent) in various solvents is determined by means of the following test:
at room temperature, 20 g of solvent are added to 5 g of screening agent,
the mixture thus obtained is heated to 83° C. by means of a water bath,
after cooling, the possible presence of crystals is then observed under a microscope, between a slide and glass coverslips, in polarized light.

As for `CCCCCCCCCCC(CO)CCCCCCCC` (stereo not shown) [2-Octyldodecanol], the “Presence of crystals, storage in the cold (+4° C.) for 4 days” value (“Presence of crystals … (+4° C.) for 4 days” below) is listed as “Crystals” and the “Presence of crystals, storage at room temperature for 4 days” value (“Presence … at room temperature for 4 days” below) is on record as “Crystals”.
Turning to `CCCCCCCCCCCCCCCC(=O)OCC(CC)CCCC` (stereo not shown) [2-Ethylhexyl palmitate], the “Presence of crystals … (+4° C.) for 4 days” value is reported as “Crystals” and the “Presence … at room temperature for 4 days” value is given as “Crystals”.
With `CC(CC(=O)OCC(COC(=O)CC(C)CC(C)(C)C)OC(=O)CC(C)CC(C)(C)C)CC(C)(C)C` (stereo not shown) [Glyceryl triisononanoate], the “Presence of crystals … (+4° C.) for 4 days” value was “Crystals” and the “Presence … at room temperature for 4 days” value is recorded as “Crystals”.
Consider `CCCCCCCCC(CCCCCC)C(=O)O` (stereo not shown) [2-Hexyldecanoic acid], for which the “Presence of crystals … (+4° C.) for 4 days” value is given as “Crystals” and the “Presence … at room temperature for 4 days” value is given as “Crystals”.
With Oxypropylenated stearyl alcohol, the “Presence of crystals … (+4° C.) for 4 days” value is recorded as “Crystals” and the “Presence … at room temperature for 4 days” value was “Crystals”.
As for `CCCCCCCC/C=C\CCCCCCCCO` [Oleyl alcohol], the “Presence of crystals … (+4° C.) for 4 days” value is listed as “Crystals” and the “Presence … at room temperature for 4 days” value was “Crystals”.
As to `CCCCCCCCCCCCCC(C)C` [Isohexadecane], the “Presence of crystals … (+4° C.) for 4 days” value is reported as “Crystals” and the “Presence … at room temperature for 4 days” value is reported as “Crystals/Cloudy”.
`CCCCC(CC)C(=O)OCC(C)(C)COC(=O)C(CC)CCCC` (stereo not shown) [Neopentyl glycol di-2-ethylhexanoate]: the “Presence of crystals … (+4° C.) for 4 days” value was “Crystals” and the “Presence … at room temperature for 4 days” value is reported as “Crystals”.
Consider `CCCCCCCCOC(=O)CC(O)C(=O)OCCCCCCCC` (stereo not shown) [Dioctyl malate], for which the “Presence of crystals … (+4° C.) for 4 days” value is reported as “Crystals” and the “Presence … at room temperature for 4 days” value was “Crystals”.
Consider `CO[C@H]1CO[C@H]2[C@@H]1OC[C@H]2OC` [Dimethyl isosorbide], for which the “Presence of crystals … (+4° C.) for 4 days” value is “Crystals” and the “Presence … at room temperature for 4 days” value is “Crystals”.
As for `CC(C)CCCCCCCOC(=O)C(C)(C)C` [Isodecyl neopentanoate], the “Presence of crystals … (+4° C.) for 4 days” value is given as “Crystals” and the “Presence … at room temperature for 4 days” value is listed as “Crystals”.
Take `CCCCCCCCC(CO)CCCCCC` (stereo not shown) [Isocetyl alcohol, 2-hexyldecanol]: the “Presence of crystals … (+4° C.) for 4 days” value was “Crystals” and the “Presence … at room temperature for 4 days” value was “Crystals”.
Take `CC(C)CCCCCCOC(=O)CCCCCC(C)C` [Isononyl isononanoate]: the “Presence of crystals … (+4° C.) for 4 days” value is given as “Crystals” and the “Presence … at room temperature for 4 days” value is “Crystals”.
On to Oxypropylenated butanediol (10 PO), for which the “Presence of crystals … (+4° C.) for 4 days” value is on record as “Crystals” and the “Presence … at room temperature for 4 days” value is listed as “Crystals”.
Take Tridecyl trimellitate: the “Presence of crystals … (+4° C.) for 4 days” value is listed as “Absence of” and the “Presence … at room temperature for 4 days” value was “Absence of”.
With `C[Si]1(C)O[Si](C)(C)O[Si](C)(C)O[Si](C)(C)O[Si](C)(C)O1` [Cyclopentadimethylsiloxane], the “Presence of crystals … (+4° C.) for 4 days” value is recorded as “Crystals” and the “Presence … at room temperature for 4 days” value is “Crystals”.
Consider `CCCCC(CC)COC(=O)CCCCC(=O)OCC(CC)CCCC` (stereo not shown) [Di(2-ethylhexyl) adipate], for which the “Presence of crystals … (+4° C.) for 4 days” value is recorded as “Crystals” and the “Presence … at room temperature for 4 days” value was “Crystals”.
